Target: T1, LGC-50:MOD-1(327-458) (Caenorhabditis elegans, UniProt P41849)
T1 construct: Plasmid: KSM: lgc-50:mod-1(327-458) (cDNA); MOD-1 residues 327-458 (M3/4 loop); expressed in transfected cells; host or cells: Xenopus laevis oocytes injected with cRNA (plasmid pIH125)
T1 sequence (P41849 with tags, fused parts or gaps): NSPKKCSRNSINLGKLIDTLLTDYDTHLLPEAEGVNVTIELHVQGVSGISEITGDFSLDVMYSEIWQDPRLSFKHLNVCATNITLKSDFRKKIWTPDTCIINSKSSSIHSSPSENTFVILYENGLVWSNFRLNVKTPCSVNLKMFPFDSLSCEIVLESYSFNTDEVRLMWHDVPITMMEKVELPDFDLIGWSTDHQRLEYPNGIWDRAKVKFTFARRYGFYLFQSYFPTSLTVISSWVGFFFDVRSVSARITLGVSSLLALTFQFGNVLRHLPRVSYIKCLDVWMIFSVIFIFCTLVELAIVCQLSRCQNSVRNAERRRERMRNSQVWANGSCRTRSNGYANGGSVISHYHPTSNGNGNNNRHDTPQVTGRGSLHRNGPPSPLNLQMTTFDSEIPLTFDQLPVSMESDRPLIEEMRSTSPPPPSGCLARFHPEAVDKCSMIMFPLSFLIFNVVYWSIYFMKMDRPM
Test: Two-electrode voltage clamp, 5-HT evoked dose response, LGC-50 chimera with MOD-1 M3/4 loop
Format: cell-based, C. elegans
Details: Xenopus oocytes, TEVC; LGC-50 with M3/4 loop of MOD-1
Procedure: To investigate, we exchanged the intracellular M3/4 loop of LGC-50 with the equivalent region of MOD-1 (LGC-50:MOD-1 327–458) and expressed the chimera in oocytes. […] The EC50 of the chimeric channels matched that of the recipient channel (Figures 5C and 5D).
Defolliculated Xenopus laevis oocytes were obtained from EcoCyte Bioscience (Dortmund, Germany) and maintained in ND96 (in mM: 96 NaCl, 1 MgCl2, 5 HEPES, 1.8 CaCl2, 2 KCl) solution at 16°C for 3-5 days.
5'-capped cRNA was synthesized in vitro using the T3 mMessage mMachine transcription kit according to manufacturer’s protocol (Thermo Fischer Scientific, CA, USA). […]
Two-electrode voltage clamp recordings were carried out using the Robocyte2 recording system or a manual TEVC set up, using an OC-725D amplifier (Multi Channel Systems, Reutlingen, Germany) and paired with a custom-made recording chamber and agar bridges from reference and bath electrodes. […] Data was recorded using WinWCP or RoboCyte2 control software, manual data was filtered at 10 Hz.
Dose response curves were calculated from the peak current during a 10 s agonist stimulation in ND96 solution, with a 60 s ND96 wash in between doses. […] Normalized dose response data was fitted to a nonlinear curve using a four parameters variable slope and the EC50 and Hill slope was calculated. […] Kinetic measurements were calculated from a 60 s agonist perfusion. […]

## NCCc1c[nH]c2ccc(O)cc12 [5-HT, serotonin]
  EC50: 850 nM

— paper PMC8536830 (Current Biology, 2021)
